Our source for the EC50 values is BindingDB's records for doi:10.7270/Q2NS0SBF (Burnham Center For Chemical Genomics, 2010).

In this assay the target is Mu-type opioid receptor (Homo sapiens, UniProt P35372). As to the kind of experiment: mu opioid receptor activators, image-based, SAR follow-up (AID 2352).

Bounds are passed on as bounds.

Sequence of Mu-type opioid receptor (P35372 whole entry): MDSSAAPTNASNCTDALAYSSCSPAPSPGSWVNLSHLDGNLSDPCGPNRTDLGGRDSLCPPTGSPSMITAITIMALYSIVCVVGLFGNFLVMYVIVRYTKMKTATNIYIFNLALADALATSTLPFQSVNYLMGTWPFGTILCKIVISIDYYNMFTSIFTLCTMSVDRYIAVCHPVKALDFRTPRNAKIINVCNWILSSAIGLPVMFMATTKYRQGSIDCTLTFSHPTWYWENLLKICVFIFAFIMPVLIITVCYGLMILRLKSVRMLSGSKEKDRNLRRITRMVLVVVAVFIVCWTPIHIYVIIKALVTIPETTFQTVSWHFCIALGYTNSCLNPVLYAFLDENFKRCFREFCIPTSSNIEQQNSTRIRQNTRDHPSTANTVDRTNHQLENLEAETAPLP

As a reminder, the EC50 is the concentration at which the effect is half-maximal. Low values mean higher potency in that assay, high ones lower potency in that assay. For the molecule `CCC(N=Nc1ccnc2cc(Cl)ccc12)c1ccc(O)cc1` (configuration not stated) [4-[1-[2-(7-chloroquinolin-4-yl)hydrazinyl]propylidene]cyclohexa-2,5-dien-1-one], the EC50 came to 25.3 µM. This counts as double-digit micromolar. `Oc1ccc(CN=Nc2ccnc3cc(Cl)ccc23)cc1O` [(4Z)-4-[[2-(7-chloroquinolin-4-yl)hydrazinyl]methylidene]-2-hydroxycyclohexa-2,5-dien-1-one]: the concentration for a half-maximal effect (EC50) is > 32 µM.
